The text below walks through data of ChEMBL document CHEMBL1201862, “PubChem BioAssay data set” (2004).

Structures are written as SMILES.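 Following 48 hours of exposure in 96-well plates, responses at five concentrations were used to interpolate endpoints linearly. The concentration for 50% growth inhibition is given as GI50.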 Activity calls are given as the source filed them. Cut-off read from the data, not from the text of the source: active = GI50 up to about 1.1 µM and inactive = higher. Where only a bound is given, the exact number is not on record here.

Some test systems named below: CCRF-CEM; HCT-15; HL-60; M14; MDA-N; MOLT-4; NCI-H226; NCI-H23; NCI/ADR-RES; OVCAR-3; PC-3; SF-268; SK-MEL-28; SK-MEL-2; SK-MEL-5; SW-620; TK-10; A549; SNB-19.
Assay in all cases: inhibition of tumour cell growth, NCI panel, 48 h

As for `O=C(c1cc2c(c3ccccc13)NCCN=C2C(F)(F)F)C(F)(F)F`, the GI50 with CCRF-CEM is 17 µM (inactive); in the experiment on HCT-15 it was 45.3 µM; in the experiment with HL-60 it was 16.3 µM (inactive); with M14, 24.9 µM (inactive); with MDA-N, 21.4 µM (inactive); with MOLT-4, 7.11 µM (inactive). For the same compound, the GI50 in the experiment with NCI-H226 was 18.5 µM (inactive); in the experiment on NCI-H23 it was 40.6 µM (inactive); in the experiment with NCI/ADR-RES, 27 µM (inactive); in the experiment on OVCAR-3, 26 µM (inactive); with PC-3, 14.6 µM (inactive); with SF-268, 24 µM (inactive). In addition, the GI50 in the experiment with SK-MEL-28 was 18.9 µM (inactive); with SK-MEL-2, 18.7 µM (inactive); in the experiment on SK-MEL-5 it was 16.4 µM (inactive); in the experiment with SW-620, 35.2 µM (inactive); in the experiment on TK-10, 24.9 µM (inactive).
In the case of `Cn1c2ccc([N+](=O)[O-])cc2c(=O)c2c(O)cc(O)cc21`, the GI50 in the experiment with A549 is 29.4 µM (inactive); in the experiment on CCRF-CEM, > 100 µM (inactive); in the experiment on HCT-15 it was 60.3 µM; in the experiment with HL-60, > 100 µM (inactive); with M14 it was 60.4 µM (inactive); in the experiment on MDA-N, > 100 µM (inactive). Besides, the GI50 in the experiment with MOLT-4 is 45.2 µM (inactive); in the experiment with NCI-H226, 53.2 µM (inactive); in the experiment with NCI/ADR-RES, 17 µM (inactive); in the experiment on OVCAR-3, 52.4 µM (inactive); with PC-3, > 100 µM (inactive); with SF-268, 19.7 µM (inactive). The GI50 is > 100 µM (inactive) with SK-MEL-28; > 10 µM (inactive) in the experiment with SK-MEL-2; 60 µM (inactive) in the experiment on SK-MEL-5; 18.1 µM (inactive) in the experiment on SNB-19; 68.2 µM (inactive) in the experiment on SW-620; 66.2 µM (inactive) in the experiment on TK-10.
`O=[N+]([O-])c1ccc(CSc2nn(Cc3ccc([N+](=O)[O-])cc3)cc3ncnc2-3)cc1`: the GI50 with A549 is 39 µM (inactive); in the experiment with CCRF-CEM, > 10 µM (inactive); with HCT-15 it was 43.1 µM; in the experiment on HL-60 it was 21.5 µM (inactive); with M14, 34.8 µM (inactive); with MDA-N, 33 µM (inactive). For the same compound, the GI50 in the experiment on MOLT-4 is 23.5 µM (inactive); in the experiment with NCI-H226, 38.4 µM (inactive); with NCI-H23, 26.4 µM (inactive); with NCI/ADR-RES, 44 µM (inactive); in the experiment with OVCAR-3 it was 56.2 µM (inactive); with PC-3 it was 35.5 µM (inactive). In addition, the GI50 in the experiment on SK-MEL-28 is 22.1 µM (inactive); in the experiment with SK-MEL-2 it was 19.7 µM (inactive); with SK-MEL-5, 32 µM (inactive); in the experiment with SW-620, 21.7 µM (inactive); in the experiment with TK-10, 29 µM (inactive).
Turning to `CCN1c2cc(Br)cc3[nH]c(=O)n(c23)CCC1C` (stereo not drawn), the GI50 with A549 is 15.1 µM (inactive); in the experiment on CCRF-CEM it was 12 µM (inactive); in the experiment on HCT-15, 14.5 µM; in the experiment with HL-60, 11.9 µM (inactive); in the experiment with M14 it was 17.2 µM (inactive); in the experiment on MDA-N, 4.89 µM (inactive). The GI50 is 4.32 µM (inactive) with MOLT-4; 15.8 µM (inactive) in the experiment with NCI-H226; 21.7 µM (inactive) in the experiment with NCI-H23; 5.7 µM (inactive) in the experiment on NCI/ADR-RES; 14.6 µM (inactive) with OVCAR-3; 17.2 µM (inactive) with PC-3. Also, the GI50 is 14.2 µM (inactive) with SF-268; 18.7 µM (inactive) in the experiment with SK-MEL-28; 15.6 µM (inactive) with SK-MEL-2; 15.2 µM (inactive) with SK-MEL-5; 23.2 µM (inactive) in the experiment with SNB-19; 5.48 µM (inactive) in the experiment on SW-620. Further, the GI50 in the experiment with TK-10 was 15.9 µM (inactive).
Regarding `CC(C)(C)c1cc(OCc2nnc(S)n2N)c(Cl)cc1OCc1nnc(S)n1N`, the GI50 was 52.2 µM (inactive) in the experiment with A549; 22.9 µM (inactive) with CCRF-CEM; 55.8 µM in the experiment on HCT-15; 4.19 µM (inactive) in the experiment on HL-60; 51.3 µM (inactive) in the experiment with M14; 41.3 µM (inactive) in the experiment with MDA-N. In addition, the GI50 was 22.6 µM (inactive) with MOLT-4; > 100 µM (inactive) in the experiment on NCI-H226; 42.8 µM (inactive) with NCI-H23; > 100 µM (inactive) in the experiment with NCI/ADR-RES; 32.4 µM (inactive) in the experiment with OVCAR-3; 28.2 µM (inactive) in the experiment with PC-3. The GI50 in the experiment on SF-268 was 45.5 µM (inactive); in the experiment on SK-MEL-28 it was 45.9 µM (inactive); in the experiment on SK-MEL-2, 18.4 µM (inactive); with SK-MEL-5, 26.5 µM (inactive); in the experiment with SNB-19, 42.1 µM (inactive); in the experiment with SW-620, 43.2 µM (inactive). Also, the GI50 in the experiment with TK-10 was 52.2 µM (inactive).
For the compound `CCCCCCc1cc(C=O)sc1-c1ccc(-c2sc(-c3ccc(-c4ccc(-c5cc(CCCCCC)c(-c6ccc(-c7sc(C=O)cc7CCCCCC)s6)s5)s4)s3)cc2CCCCCC)s1`, the GI50 with A549 was > 100 µM (inactive); in the experiment with CCRF-CEM, > 100 µM (inactive); in the experiment with HCT-15, greater than 100 µM; in the experiment with HL-60, > 100 µM (inactive); with M14 it was > 100 µM (inactive); with MDA-N, > 100 µM (inactive). Further, the GI50 is > 100 µM (inactive) in the experiment on MOLT-4; 28.4 µM (inactive) in the experiment on NCI-H226; > 100 µM (inactive) in the experiment with NCI-H23; > 100 µM (inactive) with NCI/ADR-RES; > 100 µM (inactive) in the experiment on OVCAR-3; > 100 µM (inactive) in the experiment on PC-3. The GI50 with SF-268 was 85.9 µM (inactive); in the experiment on SK-MEL-28, > 100 µM (inactive); in the experiment on SK-MEL-2, > 100 µM (inactive); in the experiment with SK-MEL-5, > 100 µM (inactive); with SNB-19, > 100 µM (inactive); in the experiment on SW-620 it was > 100 µM (inactive). Further, the GI50 with TK-10 was > 100 µM (inactive).
With `CCN1CN(c2ccccc2)C2(CCN(CC(CC3OCCO3)c3ccc(F)cc3)CC2)C1=O` (stereo not drawn), the GI50 in the experiment with A549 is 5.24 µM (inactive); in the experiment with CCRF-CEM it was 3.65 µM (inactive); in the experiment with HCT-15 it was 16.3 µM; in the experiment with HL-60, 17.7 µM (inactive); in the experiment with M14, 5.24 µM (inactive); in the experiment with MDA-N, 8.49 µM (inactive). Besides, the GI50 in the experiment on MOLT-4 is 4.99 µM (inactive); in the experiment on NCI-H226, 13.5 µM (inactive); with NCI-H23 it was 12.5 µM (inactive); in the experiment with NCI/ADR-RES, 10.5 µM (inactive); in the experiment on OVCAR-3 it was 18.8 µM (inactive); in the experiment on PC-3 it was 22.6 µM (inactive). Besides, the GI50 was 5.19 µM (inactive) with SF-268; 19.9 µM (inactive) in the experiment on SK-MEL-28; 20.1 µM (inactive) in the experiment with SK-MEL-2; 4.07 µM (inactive) in the experiment on SK-MEL-5; 20.6 µM (inactive) with SNB-19; 6.35 µM (inactive) in the experiment with SW-620. Besides, in the experiment on TK-10, the GI50 is 7.53 µM (inactive).
With `O=C1OC2c3ccccc3C(=O)C2(c2ccccc2)N1c1ccccc1` (stereo not drawn), the GI50 in the experiment with A549 is > 200 µM (inactive); in the experiment with CCRF-CEM, 128 µM (inactive); in the experiment with HCT-15, greater than 200 µM; with HL-60 it was 29.9 µM (inactive); with M14, > 200 µM (inactive); with MDA-N, > 200 µM (inactive). Also, the GI50 in the experiment with MOLT-4 was 186 µM (inactive); with NCI-H226, > 200 µM (inactive); in the experiment on NCI-H23, > 200 µM (inactive); with NCI/ADR-RES, > 200 µM (inactive); in the experiment with OVCAR-3 it was > 200 µM (inactive); in the experiment on PC-3, 183 µM (inactive). Moreover, the GI50 in the experiment with SF-268, in the experiment with SK-MEL-28, with SK-MEL-2, with SK-MEL-5, in the experiment with SNB-19 and in the experiment with SW-620 was > 200 µM (inactive) in each case. The GI50 in the experiment on TK-10 is > 200 µM (inactive).
`CCc1n[nH]c(=O)n1N1C(=O)C2CCCCC2C1=O` (stereo not drawn): the GI50 was > 100 µM (inactive) in the experiment with A549; > 100 µM (inactive) with CCRF-CEM; greater than 100 µM in the experiment on HCT-15; > 100 µM (inactive) in the experiment with HL-60; > 100 µM (inactive) in the experiment on M14; > 100 µM (inactive) in the experiment on MDA-N. Further, the GI50 with MOLT-4, in the experiment on NCI-H226, in the experiment with NCI-H23, in the experiment with NCI/ADR-RES, in the experiment with OVCAR-3 and in the experiment on PC-3 was > 100 µM (inactive) in each case. Further, the GI50 in the experiment on SF-268, with SK-MEL-28, with SK-MEL-2, with SK-MEL-5, with SW-620 and in the experiment on TK-10 was > 100 µM (inactive) in each case.
On to `O[C@@]1(c2cccs2)c2cccc(Cl)c2[C@](O)(c2cccs2)c2cccc(Cl)c21`, for which the GI50 was 14.9 µM (inactive) in the experiment on A549; 33.3 µM (inactive) with CCRF-CEM; 21.2 µM in the experiment on HCT-15; 16.6 µM (inactive) with HL-60; 15.4 µM (inactive) in the experiment on M14; 16.8 µM (inactive) with MDA-N. For the same compound, the GI50 in the experiment on MOLT-4 was 15.9 µM (inactive); in the experiment on NCI-H226 it was 22.1 µM (inactive); with NCI-H23, 18.1 µM (inactive); in the experiment on NCI/ADR-RES, 22.6 µM (inactive); in the experiment with OVCAR-3 it was 16.3 µM (inactive); with PC-3, 19.1 µM (inactive). Moreover, the GI50 in the experiment with SF-268 is 19.8 µM (inactive); in the experiment on SK-MEL-28, 17.3 µM (inactive); in the experiment on SK-MEL-2, 18.2 µM (inactive); in the experiment on SK-MEL-5, 17.3 µM (inactive); in the experiment with SNB-19, 26.7 µM (inactive); in the experiment on SW-620, 17.3 µM (inactive). Also, in the experiment with TK-10, the GI50 was 28.1 µM (inactive).
Consider `CC(=O)OC1(C)CC(C)C(=O)C(C(O)CC2CC(=O)NC(=O)C2)C1` (stereo not drawn), for which the GI50 was 0.00729 µM (active) with A549; 0.00507 µM (active) in the experiment with CCRF-CEM; 0.0348 µM with HCT-15; 0.00955 µM (active) with HL-60; 0.0161 µM (active) in the experiment with M14; 0.0166 µM (active) with MDA-N. In addition, the GI50 is 0.00444 µM (active) in the experiment on MOLT-4; 0.0448 µM (active) in the experiment on NCI-H226; 0.00807 µM (active) with NCI-H23; 0.0386 µM (active) in the experiment with NCI/ADR-RES; 0.0236 µM (active) in the experiment on OVCAR-3; 0.0199 µM (active) in the experiment with PC-3. Moreover, the GI50 with SF-268 was 0.0329 µM (active); in the experiment with SK-MEL-28, 0.00776 µM (active); in the experiment on SK-MEL-2, 0.00752 µM (active); with SK-MEL-5 it was 0.00787 µM (active); in the experiment on SNB-19 it was 0.0141 µM (active); with SW-620, 0.015 µM (active). For the same compound, in the experiment on TK-10, the GI50 is 0.0859 µM (active).
